The values below are quoted from earlier work in patent US20060182790A1, “Dermal medicaments application enhancer” (priority 2005, published 2006).

Structures are written as SMILES.

Consider `Cl.NCC(=O)CCC(=O)O` [ALA HCl, 5-amino-4-oxopentanoic acid hydrochloride], for which the solubility in chloroform entry (chloroform) is “practically insoluble”. Also, where the note is “ethanol”, the solubility in ethanol result is reported as “slightly soluble”. Besides, under “hexane”, the solubility in hexane result is “practically insoluble”. Also, under “methanol”, the solubility in methanol result is reported as “slightly soluble”. Besides, the “solubility in mineral oil” value (mineral oil) is “practically insoluble”. Where the note is “water”, the solubility in water result is on record as “very soluble”.
